Activity calls are given as the source filed them. The rule behind the calls is not given here.
Key:
MCF7 = experiment: Cytotoxicity against human MCF7 cells assessed as inhibition of cell growth incubated for 72 hrs by MTT assay; format: functional, cell-based; settings: MCF7, 72 h
[1] = Cytotoxicity against human HEK293 cells assessed as inhibition of cell growth incubated for 72 hrs by MTT assay; format: toxicity, cell-based
[2] = Cytotoxicity against human HCEC cells assessed as inhibition of cell growth incubated for 72 hrs by MTT assay; format: toxicity, cell-based; settings: human, HCEC cells
[3] = Cmax in Wistar rat at 15 mg/kg, ip measured upto 24 hrs by HPLC analysis; format: ADME, organism-based; design: dose 15 mg/kg, time < 24 hrs, route ip; settings: in vivo
[4] = AUC (0 to t) in Wistar rat at 15 mg/kg, ip measured upto 24 hrs by HPLC analysis; format: ADME, organism-based; design: dose 15 mg/kg, time < 24 hrs, route ip; settings: in vivo
[5] = MRT (0 to infinity) in Wistar rat at 5 mg/kg, ip measured upto 24 hrs by HPLC analysis; format: ADME, organism-based; settings: in vivo
[6] = Apparent volume of distribution in Wistar rat at 15 mg/kg, ip measured upto 24 hrs by HPLC analysis; format: ADME, organism-based; settings: in vivo
[7] = Apparent oral clearance in Wistar rat at 5 mg/kg, ip measured upto 24 hrs by HPLC analysis; format: ADME, organism-based; settings: in vivo
[8] = Apparent oral clearance in Wistar rat at 15 mg/kg, ip measured upto 24 hrs by HPLC analysis; format: ADME, organism-based; settings: in vivo
Histone deacetylase 4 = Histone deacetylase 4 (Homo sapiens, UniProt P56524); experiment: Inhibition of HDAC4 (unknown origin) incubated for 30 mins by fluorescence based microplate analysis
[9] = Selectivity ratio of IC50 for cytotoxicity against human MCF-10A cells assessed as inhibition of cell growth to IC50 for cytotoxicity against human MDA-MB-453 cells assessed as inhibition of cell growth; format: toxicity, cell-based; settings: MCF-10A cells versus MDA-MB-453 cells, read-out: Ratio IC50
[10] = Selectivity ratio of IC50 for cytotoxicity against human HEK293 cells assessed as inhibition of cell growth to IC50 for cytotoxicity against human MCF7 cells assessed as inhibition of cell growth; format: toxicity, cell-based; settings: HEK293 cells versus MCF7 cells, read-out: Ratio IC50
[11] = Selectivity ratio of IC50 for cytotoxicity against human HEK293 cells assessed as inhibition of cell growth to IC50 for cytotoxicity against mouse 4T1 cells assessed as inhibition of cell growth; format: toxicity, cell-based; settings: HEK293 cells versus 4T1 cells, read-out: Ratio IC50
[12] = Selectivity ratio of IC50 for cytotoxicity against human HEK293 cells assessed as inhibition of cell growth to IC50 for cytotoxicity against human MDA-MB-453 cells assessed as inhibition of cell growth; format: toxicity, cell-based; settings: HEK293 cells versus MDA-MB-453 cells, read-out: Ratio IC50
4T1 [13] = experiment: Induction of apoptosis in mouse 4T1 cells assessed as increase cytochrome c level by Western blot analysis; format: functional, cell-based; settings: dose 1.0 µM
4T1 [14] = experiment: Induction of apoptosis in mouse 4T1 cells at 2.75 uM incubated for 72 hrs by annexin/PI staining based flow cytometry analysis (reference value: 1.35%); format: functional
4T1 [15] = experiment: Cell cycle arrest in mouse 4T1 cells assessed as accumulation of cells at G2/M phase at 2.75 uM incubated for 72 hrs by flow cytometry; format: functional
[16] = Metabolic stability in rat liver microsome assessed as intrinsic clearance preincubated for 5 mins followed by NADPH addition and measured after 60 mins by HPLC analysis; format: ADME; settings: liver microsomes, time 65 min, read-out: CLH
[17] = Metabolic stability in rat liver microsome assessed as half life preincubated for 5 mins followed by NADPH addition and measured after 60 mins by HPLC analysis; format: ADME; settings: liver microsomes, time 65 min
4T1 [18] = experiment: Antitumor activity against mouse 4T1 cells implanted in BALB/c mouse assessed as reduction in tumor growth at 5 to 15 mg/kg, ip administered 5 times a week for 21 days; format: functional, organism-based; settings: dose 5-15 mg/kg, time 21.0 day
4T1 [19] = experiment: Antitumor activity against mouse 4T1 cells implanted in BALB/c mouse assessed as reduction in tumor volume at 5 mg/kg, ip administered 5 times a week for 21 days (reference value: 52.05+/-13.23 mm3); format: functional; settings: time 21 day
[20] = Toxicity against BALB/c mouse implanted with mouse 4T1 cells assessed as body weight loss at 5 to 15 mg/kg,ip administered 5 times a week for 21 days; format: organism-based; settings: in vivo, 504 h, dose 5-15 mg/kg, time 21 day
[21] = Toxicity against BALB/c mouse implanted with mouse 4T1 cells assessed as body weight gain at 5 to 15 mg/kg,ip administered 5 times a week for 21 days; format: organism-based; settings: in vivo, 504 h, dose 5-15 mg/kg, time 21 day
4T1 [22] = experiment: Antitumor activity against mouse 4T1 cells implanted in BALB/c mouse assessed as reduction in tumor weight at 15 mg/kg, ip administered 5 times a week for 21 days; format: functional; settings: time 21 day
4T1 [23] = experiment: Antitumor activity against mouse 4T1 cells implanted in BALB/c mouse assessed as reduction in tumor weight at 5 mg/kg, ip administered 5 times a week for 21 days; format: functional; settings: time 21 day
4T1 [24] = experiment: Antitumor activity against mouse 4T1 cells implanted in BALB/c mouse assessed as tumor growth inhibition at 5 mg/kg, ip measured on day 21; format: functional; settings: 4T1, 504 h, time 21 day, read-out: TGI
4T1 [25] = experiment: Antitumor activity against mouse 4T1 cells implanted in BALB/c mouse assessed as increase in apoptosis in tumor tissue at 5 to 15 mg/kg, ip by TUNEL staining based microscopic analysis; format: functional, organism-based; settings: dose 5-15 mg/kg
4T1 [26] = experiment: Antitumor activity against mouse 4T1 cells implanted in BALB/c mouse assessed as reduction in lung metastasis at 5 to 15 mg/kg, ip measured for 7 days by fluorescence based assay; format: functional, organism-based; settings: dose 5-15 mg/kg, time 7.0 day
[27] = Toxicity in BALB/c mouse implanted with mouse 4T1 cells assessed as liver damage at 5 to 15 mg/kg, ip measured after 21 days by H and E staining based assay; format: organism-based; settings: in vivo, 504 h, dose 5-15 mg/kg, time 21 day
[28] = Toxicity in BALB/c mouse implanted with mouse 4T1 cells assessed as effect on cell shape in heart at 5 to 15 mg/kg, ip measured after 21 days by H and E staining based assay; format: organism-based; settings: in vivo, 504 h, dose 5-15 mg/kg, time 21 day
[29] = Toxicity in BALB/c mouse implanted with mouse 4T1 cells assessed as effect on cell shape in kidney at 5 to 15 mg/kg, ip measured after 21 days by H and E staining based assay; format: organism-based; settings: in vivo, 504 h, dose 5-15 mg/kg, time 21 day
[30] = Toxicity in BALB/c mouse implanted with mouse 4T1 cells assessed as effect on cell size in liver at 5 to 15 mg/kg, ip measured after 21 days by H and E staining based assay; format: organism-based; settings: in vivo, 504 h, dose 5-15 mg/kg, time 21 day
[31] = Toxicity in BALB/c mouse implanted with mouse 4T1 cells assessed as spleen fibrosis at 5 to 15 mg/kg, ip measured after 21 days; format: organism-based; settings: in vivo, 504 h, dose 5-15 mg/kg, time 21 day
[32] = Toxicity in BALB/c mouse implanted with mouse 4T1 cells assessed as neutrophilic infiltration in liver at 5 to 15 mg/kg, ip measured after 21 days; format: organism-based; settings: in vivo, 504 h, dose 5-15 mg/kg, time 21 day
4T1 [33] = experiment: Antitumor activity against mouse 4T1 cells implanted in BALB/c mouse assessed as upregulation of cytochrome c level in tumor at 5 to 15 mg/kg, ip by Western blot analysis; format: functional, organism-based; settings: dose 5-15 mg/kg
4T1 [34] = experiment: Antitumor activity against mouse 4T1 cells implanted in BALB/c mouse assessed as reduction in Ki-67 protein level in tumor at 5 to 15 mg/kg, ip by Western blot analysis; format: functional, organism-based; settings: dose 5-15 mg/kg

Chain of Histone deacetylase 4 (P56524 whole entry): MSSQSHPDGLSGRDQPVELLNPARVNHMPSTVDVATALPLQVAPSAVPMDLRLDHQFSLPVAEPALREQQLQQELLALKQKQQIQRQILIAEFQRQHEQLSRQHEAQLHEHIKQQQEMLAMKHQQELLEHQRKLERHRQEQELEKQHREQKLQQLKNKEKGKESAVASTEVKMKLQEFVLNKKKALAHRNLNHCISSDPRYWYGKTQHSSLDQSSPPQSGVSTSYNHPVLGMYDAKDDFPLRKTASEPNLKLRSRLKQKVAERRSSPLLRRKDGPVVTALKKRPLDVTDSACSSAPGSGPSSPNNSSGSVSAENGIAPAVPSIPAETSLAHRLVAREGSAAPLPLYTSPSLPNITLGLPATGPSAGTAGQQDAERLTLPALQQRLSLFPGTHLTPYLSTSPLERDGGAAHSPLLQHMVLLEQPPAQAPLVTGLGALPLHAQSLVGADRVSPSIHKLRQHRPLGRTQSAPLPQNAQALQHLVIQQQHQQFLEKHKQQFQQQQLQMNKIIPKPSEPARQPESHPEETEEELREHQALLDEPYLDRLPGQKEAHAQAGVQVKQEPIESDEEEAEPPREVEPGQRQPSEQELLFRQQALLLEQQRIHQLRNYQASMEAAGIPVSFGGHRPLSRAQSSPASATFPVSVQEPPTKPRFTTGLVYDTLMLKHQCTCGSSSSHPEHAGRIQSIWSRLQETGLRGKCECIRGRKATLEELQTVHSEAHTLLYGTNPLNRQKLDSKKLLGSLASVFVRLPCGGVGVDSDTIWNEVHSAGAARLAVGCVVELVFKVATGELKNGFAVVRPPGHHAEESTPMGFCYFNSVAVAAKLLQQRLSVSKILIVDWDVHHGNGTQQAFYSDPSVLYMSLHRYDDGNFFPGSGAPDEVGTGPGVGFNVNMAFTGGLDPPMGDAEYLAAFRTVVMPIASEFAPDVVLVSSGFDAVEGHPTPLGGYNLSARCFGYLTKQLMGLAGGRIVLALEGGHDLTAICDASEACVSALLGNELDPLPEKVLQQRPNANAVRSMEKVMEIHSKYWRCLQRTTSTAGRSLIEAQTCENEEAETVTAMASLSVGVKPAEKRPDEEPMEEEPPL

Cmax [3]: 9580 ng/mL | AUC(0-t) at 24 h [4]: 19600 ng·h/mL | MRT inf [5]: 5.73 h | Vz/F [6]: 12.57 (mg/kg)/(ug/ml) | CL/F [7]: 1.15 (mg/kg)/(ug/ml).hr | CL/F [8]: 1.3 (mg/kg)/(ug/ml).hr | IC50 (Histone deacetylase 4): > 20 µM | microsomal CLint [16]: 36.2 µL/min/mg | half-life [17]: 0.639 h
SMILES: CCCNNC(=O)c1cnc(NCc2ccc(OC)cc2)cn1
IC50 (MCF7): 0.95 µM | IC50 at 72 h [1]: 239 µM | IC50 at 72 h [2]: 212 µM | selectivity ratio [9]: 385 | selectivity ratio [10]: 286 | selectivity ratio [11]: 286 | selectivity ratio [12]: 286 | Activity (4T1 [13]): Dose-Dependent Effect | Activity (4T1 [14]): 94.6% | Activity (4T1 [15]): 63.4% | Activity (4T1 [18]): Active | Activity (4T1 [19]): 185.23 mm3 | Activity [20]: Non-Toxic | Activity [21]: Non-Toxic | Activity (4T1 [22]): 1.78 g | Activity (4T1 [23]): 0.65 g | inhibition in vivo at 5 mg/kg (4T1 [24]): 92.9% | Activity (4T1 [25]): Active | Activity (4T1 [26]): Active | Activity [27]: Non-Toxic | Activity [28]: Non-Toxic | Activity [29]: Non-Toxic | Activity [30]: Non-Toxic | Activity [31]: Non-Toxic | Activity [32]: Non-Toxic | Activity (4T1 [33]): Active | Activity (4T1 [34]): Active

Source: ChEMBL document CHEMBL5365457, “Selective HDAC3 Inhibitors with Potent In Vivo Antitumor Efficacy against Triple-Negative Breast Cancer” (J Med Chem, 2023)
